Experimental data as given in PMC12948284, “Halorotetin B, A Novel Terpenoid Compound Derived from Marine Ascidian, Suppresses Tumor Growth by Targeting the Cell Cycle Regulator UBE2C” (Advanced Science, 2025).

Columns and labels:
[1] = target: T1, UBE2C (endogenous, HCC cells) (Homo sapiens, UniProt O00762); assay: cellular thermal shift assay, Western blot; assay type: cell-based; conditions: 20 µM, 24 h
T1 construct: endogenous protein in hepatocellular carcinoma cells, detected by Western blot (anti-UBE2C EPR-23165-31)
T1 sequence (O00762 2-179): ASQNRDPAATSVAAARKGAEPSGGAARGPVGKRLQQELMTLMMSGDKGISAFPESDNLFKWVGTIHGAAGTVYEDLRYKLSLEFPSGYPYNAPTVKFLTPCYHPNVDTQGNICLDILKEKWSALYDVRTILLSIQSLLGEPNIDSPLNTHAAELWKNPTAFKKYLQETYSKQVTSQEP

[2] = target: T2, GFP-tagged UBE2C (pcDNA3.1-eGFP-UBE2C) (Homo sapiens, UniProt O00762); assay: CETSA, heated at […] °C for […] min; assay type: cell-based; conditions: cells treated with Halorotetin B 24 h before purification
T2 sequence (O00762 2-179): T1 sequence (O00762 2-179)

[3] = target: T3, recombinant human UBE2C (Homo sapiens, UniProt O00762); assay: ubiquitylation kit, ubiquitin chain / E2-Ub formation, Western blot; assay type: biochemical; conditions: 37 °C, 4 h; source of E2 not told
T3 sequence (O00762 2-179): T1 sequence (O00762 2-179)

[4] = target: T3, recombinant human UBE2C; assay: surface plasmon resonance, […] Langmuir fit; assay type: binding

Kd [4]: 6.71 µM
Compound: CC(=O)/C=C/C=C(/C)C#CC1=C(C)C[C@@H](O)CC1(C)C [Halorotetin B]
cellular thermal shift assay, Western blot [1]: UBE2C exhibited significant thermal stabilization upon Halorotetin B treatment | CETSA, heated at 77 °C for 10 min [2]: The thermal stabilization of wide type UBE2C and Ser51‐mutant UBE2C | ubiquitylation kit, ubiquitin chain / E2-Ub formation, Western blot [3]: Halorotetin B significantly suppressed the enzymatic activity of UBE2C protein
